Assay [1] has as its target T1, Asparagine synthetase [glutamine-hydrolyzing] (Homo sapiens, UniProt P08243).
T1 sequence (P08243 whole entry): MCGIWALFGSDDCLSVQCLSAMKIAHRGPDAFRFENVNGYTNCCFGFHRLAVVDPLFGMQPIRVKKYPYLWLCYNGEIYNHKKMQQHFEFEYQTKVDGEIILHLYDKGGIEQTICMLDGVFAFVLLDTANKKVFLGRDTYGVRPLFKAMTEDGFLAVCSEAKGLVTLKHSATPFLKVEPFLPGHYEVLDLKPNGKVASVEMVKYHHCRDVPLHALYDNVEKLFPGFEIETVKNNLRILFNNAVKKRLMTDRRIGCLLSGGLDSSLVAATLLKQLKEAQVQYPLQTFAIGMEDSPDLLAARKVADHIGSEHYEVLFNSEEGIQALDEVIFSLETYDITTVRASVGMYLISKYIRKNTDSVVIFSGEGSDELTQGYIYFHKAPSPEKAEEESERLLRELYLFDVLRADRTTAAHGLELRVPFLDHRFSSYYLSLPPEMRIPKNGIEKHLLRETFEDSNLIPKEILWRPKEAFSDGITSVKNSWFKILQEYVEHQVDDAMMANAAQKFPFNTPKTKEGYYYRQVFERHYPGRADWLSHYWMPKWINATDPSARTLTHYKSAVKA
The experiment in a line: Inhibition of human recombinant ASNS expressed in Sf9 insect cells.

For assay [2], the target named is T1, Asparagine synthetase [glutamine-hydrolyzing]. The experiment in a line: Inhibition of human recombinant ASNS expressed in Sf9 insect cells assessed as overall inhibition constant.
Assay [3] deals with T2, Asparagine synthetase [glutamine-hydrolyzing] (Homo sapiens) (UniProt P08243).
T2 sequence (whole entry): T1 sequence (P08243 whole entry)
The experiment in a line: Inhibition of human recombinant ASNS expressed in Sf9 insect cells assessed as inorganic phosphate production in glutamine-dependent asparagine synthesis using continuous assay.

The target in assay [4] is T2, Asparagine synthetase [glutamine-hydrolyzing] (Homo sapiens). The assay can be described thus: Inhibition of human recombinant ASNS expressed in Sf9 insect cells assessed as inorganic phosphate production in ammonia-dependent asparagine synthesis using continuous assay.

pKi: −log10 of the molar value. Calls of active or inactive are those of the source. No cut-off for these calls is given here.

As to `C[S+]([O-])(C[C@H](N)C(=O)O)=NP(=O)(O)OC[C@H]1O[C@@H](n2cnc3c(N)ncnc32)[C@H](O)[C@@H]1O` (some centres undefined), the pKi (in general, −log10 of the Ki, conventionally taken in molar units) in assay [1] was 4.70; in assay [2], 5.00.
In the case of `C[S+]([O-])(CC(N)C(=O)O)=NS(=O)(=O)NC[C@H]1O[C@@H](n2cnc3c(N)ncnc32)[C@H](O)[C@@H]1O` (mixture of isomers), the result in assay [3] and in assay [4] was inactive.

These data come from ChEMBL document CHEMBL1152558, “A critical electrostatic interaction mediates inhibitor recognition by human asparagine synthetase” (Bioorg Med Chem, 2009).
